Calls of active or inactive are those of the source. The rule behind the calls is not given here.
Columns and labels:
[1] = target: Neuronal acetylcholine receptor; alpha4/beta2 (Rattus norvegicus, UniProt P09483+P12390); experiment: Displacement of [3H]cytisine from alpha-4-beta-2 in rat cerebral cortical membrane; assay type: cell membranes
[2] = target: Neuronal acetylcholine receptor; alpha4/beta2 (Homo sapiens, UniProt P17787+P43681); experiment: Agonist activity at […] in IMR-32cells assessed as calcium influx by FLIPR assay; assay type: functional
[3] = tested on: Striatum; experiment: Agonist activity at rat striatal tissue assessed as dopamine release; assay type: functional
[4] = Drug level in Sprague-Dawley rat plasma at 6.2 umol/kg, ip after 30 mins; assay type: ADME, organism-based
[5] = Drug level in Sprague-Dawley rat at 6.2 umol/kg, ip after 60 mins; assay type: ADME, organism-based; details: brain, read-out: Drug uptake
[6] = Drug level in Sprague-Dawley rat brain at 6.2 umol/kg, ip after 15 mins; assay type: ADME, organism-based; details: read-out: Drug uptake
[7] = tested on: Rattus norvegicus; experiment: Antinociceptive effect in rat assessed as reduction of flinches up to 6.2 umol/kg, ip; assay type: functional, organism-based
[8] = tested on: Rattus norvegicus; experiment: Effect on reversal of allodynia in rat chug model at 19 umol/kg, ip; assay type: functional, organism-based
[9] = Drug levels in Sprague-Dawley rat plasma at 6.2 umol/kg, ip after 15 mins; assay type: ADME, organism-based
[10] = Drug level in Sprague-Dawley rat brain at 6.2 umol/kg, ip after 30 mins; assay type: ADME, organism-based; details: read-out: Drug uptake
[11] = Drug level in Sprague-Dawley rat plasma at 6.2 umol/kg, ip after 60 mins; assay type: ADME, organism-based
[12] = tested on: Mus musculus; experiment: Effect on head weaving in mouse at 6.2 umol/kg, ip; assay type: functional, organism-based
[13] = species: Rattus norvegicus; experiment: Reversal of mechanically-stimulated hyperalgesia in spinal nerve ligated rat chung model; assay type: functional, organism-based
[14] = tested on: Mus musculus; experiment: Effect on urination in mouse at 6.2 umol/kg, ip; assay type: functional, organism-based
[15] = tested on: Mus musculus; experiment: Induction of seizure in mouse at 62 umol/kg, ip; assay type: functional, organism-based
[16] = tested on: Rattus norvegicus; experiment: Antinociceptive effect on rat assessed as reduction of flinches up to 1.9 umol/kg, ip; assay type: functional, organism-based
[17] = tested on: Mus musculus; experiment: Effect on hypolocomotion in mouse at 6.2 umol/kg, ip; assay type: functional, organism-based
[18] = tested on: Rattus norvegicus; experiment: Antinociceptive effect on rat assessed as increased latency to paw withdrawal in response to noxious thermal stimulus at 0.62 umol/kg, ip; assay type: functional, organism-based
[19] = Rattus norvegicus, Striatum, read-out: EC50
[20] = Rattus norvegicus, Striatum, read-out: Log EC50 (converted)

Neuronal acetylcholine receptor; alpha4/beta2 (Homo sapiens, UniProt P17787+P43681), sequence (P17787 whole entry): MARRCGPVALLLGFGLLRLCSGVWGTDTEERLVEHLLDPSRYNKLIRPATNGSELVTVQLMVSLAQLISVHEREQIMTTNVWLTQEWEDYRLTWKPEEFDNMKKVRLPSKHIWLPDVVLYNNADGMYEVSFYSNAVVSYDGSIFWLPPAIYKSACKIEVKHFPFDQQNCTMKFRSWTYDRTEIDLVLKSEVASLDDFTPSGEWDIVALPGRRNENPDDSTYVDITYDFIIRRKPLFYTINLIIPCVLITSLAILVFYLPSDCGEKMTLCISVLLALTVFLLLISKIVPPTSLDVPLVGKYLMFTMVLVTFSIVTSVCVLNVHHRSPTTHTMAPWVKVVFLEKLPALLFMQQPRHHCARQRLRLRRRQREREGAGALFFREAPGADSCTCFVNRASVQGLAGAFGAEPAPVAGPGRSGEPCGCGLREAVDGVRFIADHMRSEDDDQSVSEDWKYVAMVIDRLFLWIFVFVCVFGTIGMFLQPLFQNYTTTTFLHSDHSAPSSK
Neuronal acetylcholine receptor; alpha4/beta2 (Homo sapiens, UniProt P17787+P43681), sequence (P43681 whole entry): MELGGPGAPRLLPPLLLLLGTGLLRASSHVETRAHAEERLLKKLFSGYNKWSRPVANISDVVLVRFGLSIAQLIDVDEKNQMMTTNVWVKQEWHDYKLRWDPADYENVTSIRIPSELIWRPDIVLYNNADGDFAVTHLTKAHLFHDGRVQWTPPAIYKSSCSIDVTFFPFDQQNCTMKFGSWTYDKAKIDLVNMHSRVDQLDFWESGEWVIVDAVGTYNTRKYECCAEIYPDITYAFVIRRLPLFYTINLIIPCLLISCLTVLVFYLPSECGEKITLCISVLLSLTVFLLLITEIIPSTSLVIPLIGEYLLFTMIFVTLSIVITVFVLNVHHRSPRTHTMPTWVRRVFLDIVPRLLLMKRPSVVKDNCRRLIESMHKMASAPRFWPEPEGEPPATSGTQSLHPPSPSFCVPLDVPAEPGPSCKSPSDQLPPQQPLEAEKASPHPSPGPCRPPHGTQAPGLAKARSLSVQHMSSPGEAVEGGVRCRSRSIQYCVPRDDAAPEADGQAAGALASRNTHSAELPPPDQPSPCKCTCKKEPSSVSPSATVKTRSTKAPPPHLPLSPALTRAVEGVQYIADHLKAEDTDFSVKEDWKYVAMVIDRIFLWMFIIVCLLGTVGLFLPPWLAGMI
Neuronal acetylcholine receptor; alpha4/beta2 (Rattus norvegicus, UniProt P09483+P12390), sequence (P09483 whole entry): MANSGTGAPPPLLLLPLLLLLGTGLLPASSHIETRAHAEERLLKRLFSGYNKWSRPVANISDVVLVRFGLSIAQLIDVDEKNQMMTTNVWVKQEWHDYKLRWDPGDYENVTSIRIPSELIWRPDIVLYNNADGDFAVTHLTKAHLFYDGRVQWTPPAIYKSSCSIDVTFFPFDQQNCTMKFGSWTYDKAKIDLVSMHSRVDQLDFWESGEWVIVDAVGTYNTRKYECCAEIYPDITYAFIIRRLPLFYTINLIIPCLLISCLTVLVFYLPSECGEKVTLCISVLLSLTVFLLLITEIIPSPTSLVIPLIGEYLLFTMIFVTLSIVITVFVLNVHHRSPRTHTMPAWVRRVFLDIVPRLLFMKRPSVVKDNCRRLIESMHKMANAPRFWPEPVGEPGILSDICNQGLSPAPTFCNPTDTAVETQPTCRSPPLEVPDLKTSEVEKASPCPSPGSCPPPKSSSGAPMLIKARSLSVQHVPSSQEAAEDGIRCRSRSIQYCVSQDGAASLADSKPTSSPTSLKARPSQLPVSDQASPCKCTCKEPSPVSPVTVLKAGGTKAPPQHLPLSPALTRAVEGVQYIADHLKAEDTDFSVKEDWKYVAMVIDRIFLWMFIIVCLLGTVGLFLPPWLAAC
Neuronal acetylcholine receptor; alpha4/beta2 (Rattus norvegicus, UniProt P09483+P12390), sequence (P12390 whole entry): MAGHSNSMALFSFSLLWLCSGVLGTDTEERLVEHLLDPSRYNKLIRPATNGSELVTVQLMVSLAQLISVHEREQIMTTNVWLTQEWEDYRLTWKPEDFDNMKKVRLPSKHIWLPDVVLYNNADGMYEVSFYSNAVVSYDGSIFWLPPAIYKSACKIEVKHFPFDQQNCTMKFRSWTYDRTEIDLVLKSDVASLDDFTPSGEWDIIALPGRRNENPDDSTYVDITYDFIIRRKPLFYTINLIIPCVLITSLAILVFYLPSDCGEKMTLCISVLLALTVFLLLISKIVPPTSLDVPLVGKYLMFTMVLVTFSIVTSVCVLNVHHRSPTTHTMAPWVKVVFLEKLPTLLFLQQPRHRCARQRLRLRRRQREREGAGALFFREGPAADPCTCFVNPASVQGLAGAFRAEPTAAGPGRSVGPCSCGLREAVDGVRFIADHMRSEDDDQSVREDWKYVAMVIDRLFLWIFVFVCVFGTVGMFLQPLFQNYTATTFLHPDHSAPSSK

| Compound | Ki ([1]; read-out: Ki) [nM] | EC50 ([2]; read-out: EC50) [nM] | further results |
| --- | --- | --- | --- |
| O=C1C2CC(CN2)N1c1ccc(Cl)nc1 (stereo not drawn) | > 10000 | – | Ki ([1]; read-out: Log Ki (converted)): > 100000 nM |
| COc1cncc(N2C[C@H]3C[C@@H]2CN3)c1 | 0.12 | 5700 | Log EC50 [3]: -7.7; EC50 ([3]; read-out: EC50): 20 nM |
| O=[N+]([O-])c1cccc(N2C[C@@H]3C[C@H]2CN3)c1 | 600 | – | – |
| Oc1cc(N2C[C@H]3C[C@@H]2CN3)cnc1Cl | 0.17 | 3200 | concentration at 0.5 h [4]: 289 ng/mL; concentration at 1 h [5]: 10 ng/g; concentration at 0.25 h [6]: 29 ng/g; Log EC50 [3]: -8.42; EC50 ([3]; read-out: EC50): 3.8 nM; Activity [7]: Active; Activity [8]: inactive; concentration at 0.25 h [9]: 458 ng/mL; concentration at 0.5 h [10]: 22 ng/g; concentration at 1 h [11]: 131 ng/mL |
| Cc1cc(N2C[C@H]3C[C@@H]2CN3)cnc1Cl | 0.014 | 180 | – |
| c1ccc2ncc(N3C[C@@H]4C[C@H]3CN4)cc2c1 | 17 | – | – |
| Clc1ccc(N2C[C@H]3C[C@@H]2CN3)cn1 | 0.018 | 140 | Log EC50 [3]: -8.6; EC50 ([3]; read-out: EC50): 2.5 nM |
| Cc1nsc(N2C[C@H]3C[C@@H]2CN3)n1 | 350 | – | – |
| c1ccc(N2C[C@@H]3C[C@H]2CN3)nc1 | 980 | – | – |
| Cc1cc(N2C[C@@H]3C[C@H]2CN3)nnc1Cl | 3.8 | – | – |
| CN1CCC[C@H]1c1cccnc1 [NICOTINE] | – | – | EC50 [3, 19]: 200 nM; EC50 [3, 20]: 200 nM |
| Clc1ccc(N2C[C@@H]3C[C@H]2CN3)cn1 | 0.1 | 450 | Log EC50 [3]: -8.28; EC50 ([3]; read-out: EC50): 5.3 nM; Activity [12]: Active; Activity [13]: Active; Activity [14]: Active; Activity [15]: Active; Activity [16]: Active; Activity [17]: Active; Activity [18]: Active |
| c1cnc2cc(N3C[C@H]4C[C@@H]3CN4)sc2c1 | 0.83 | – | – |
| O=[N+]([O-])c1ccc(N2C[C@@H]3C[C@H]2CN3)cn1 | 110 | 11000 | – |
| c1csc(N2C[C@@H]3C[C@H]2CN3)n1 | 2300 | – | – |
| Nc1ccc(N2CC3CC2CN3)cn1 (stereo not drawn) | 20 | 31000 | – |
| C[N+]1(C)CC2CC1CN2c1ccc(Cl)nc1 (stereo not drawn) | 0.2 | 1500 | – |
| Clc1cc(N2C[C@H]3C[C@@H]2CN3)cnc1Cl | 0.018 | 550 | EC50 [3, 19]: 16 nM; EC50 [3, 20]: 16.2 nM |
| Fc1ccc(N2C[C@H]3C[C@@H]2CN3)cn1 | 0.028 | 160 | EC50 ([2]; read-out: Log EC50 (converted)): 1.62 nM; Log EC50 [3]: -6.7; EC50 ([3]; read-out: EC50): 1.6 nM |

| Compound | Ki ([1]; read-out: Ki) [nM] | EC50 ([2]; read-out: EC50) [nM] | further results |
| --- | --- | --- | --- |
| Clc1ccc(N2CC3CC2CCN3)cn1 (stereo not drawn) | 2.8 | 7440 | – |
| COc1ccc(N2C[C@H]3C[C@@H]2CN3)cn1 | 0.25 | 850 | – |
| c1ccc2nc(N3C[C@@H]4C[C@H]3CN4)ccc2c1 | 4000 | – | – |
| N#Cc1cncc(N2C[C@@H]3C[C@H]2CN3)c1 | 1.7 | 24000 | Log EC50 [3]: -7.64; EC50 ([3]; read-out: EC50): 23 nM; Ki ([1]; read-out: Log Ki (converted)): 1.62 nM |
| Cc1cc(N2C[C@@H]3C[C@H]2CN3)sn1 | 4.9 | – | – |
| c1cnnc(N2C[C@@H]3C[C@H]2CN3)c1 | 120 | – | – |
| c1cncc(CN2C[C@H]3C[C@@H]2CN3)c1 | 56 | – | – |
| c1ccc(N2C[C@@H]3C[C@H]2CN3)cc1 | 1000 | – | – |
| c1cncc(N2C[C@H]3C[C@@H]2CN3)c1 | 0.018 | 370 | – |
| O=C(c1ccc(Cl)nc1)N1C[C@H]2C[C@@H]1CN2 | 590 | – | – |
| O=S(=O)(c1cnc(Cl)c(Br)c1)N1C[C@H]2C[C@@H]1CN2 | 17 | – | – |
| O=[N+]([O-])c1ccc(N2C[C@@H]3C[C@H]2CN3)cc1 | 67 | – | – |
| Clc1cc(N2CC3CC2CN3)ncn1 (stereo not drawn) | 52 | – | – |
| Fc1cccc(N2C[C@@H]3C[C@H]2CN3)c1 | 250 | – | – |
| COc1cc(N2C[C@H]3C[C@@H]2CN3)cnc1Cl | 0.1 | 4300 | – |
| Clc1nnc(N2C[C@@H]3C[C@H]2CN3)c2ccccc12 | 1900 | – | – |
| c1ncc(N2C[C@@H]3C[C@H]2CN3)cn1 | 0.95 | – | – |
| c1cncc(N2CC3CNCC2C3)c1 (stereo not drawn) | 0.065 | 1600 | – |
| Fc1ccc(N2C[C@@H]3C[C@H]2CN3)cn1 | 0.17 | 3700 | Log EC50 [3]: -7.72; EC50 ([3]; read-out: EC50): 19 nM; Ki ([1]; read-out: Log Ki (converted)): 0.141 nM |

| Compound | Ki ([1]; read-out: Ki) [nM] | EC50 ([2]; read-out: EC50) [nM] | further results |
| --- | --- | --- | --- |
| c1cncc(N2CC3CCC2CN3)c1 (stereo not drawn) | 0.02 | 280 | – |
| NCc1cncc(N2C[C@@H]3C[C@H]2CN3)c1 | 140 | 20000 | – |
| Oc1cc(N2C[C@@H]3C[C@H]2CN3)cnc1Cl | 1.6 | 35000 | Log EC50 [3]: -7.3; EC50 ([3]; read-out: EC50): 51 nM |
| CCN1C[C@@H]2C[C@H]1CN2c1ccc(Cl)nc1 | 34 | – | – |
| NC(=O)c1cncc(N2C[C@@H]3C[C@H]2CN3)c1 | 24 | 25000 | – |
| NC(=O)c1cncc(N2C[C@H]3C[C@@H]2CN3)c1 | 0.83 | 28000 | EC50 [3, 19]: 30 nM; EC50 [3, 20]: 30.2 nM |
| Oc1cncc(N2C[C@@H]3C[C@H]2CN3)c1 | 4 | > 100000 | Log EC50 [3]: -7.6; EC50 ([3]; read-out: EC50): 28 nM |
| Clc1ccc(C2CC3CCC2N3)cn1 (stereo not drawn) [EPIBATIDINE] | – | – | EC50 [3, 19]: 0.83 nM; EC50 [3, 20]: 0.832 nM |
| COc1cncc(N2C[C@@H]3C[C@H]2CN3)c1 | 0.53 | 30000 | Log EC50 [3]: -7.09; EC50 ([3]; read-out: EC50): 81 nM |
| c1cncc(N2C[C@@H]3C[C@H]2CN3)c1 | 0.15 | 6400 | EC50 [3, 19]: 138 nM; EC50 [3, 20]: 138 nM |
| FC(F)(F)c1cncc(N2C[C@H]3C[C@@H]2CN3)c1 | 490 | – | – |
| Oc1cncc(N2C[C@H]3C[C@@H]2CN3)c1 | 0.035 | 2600 | Log EC50 [3]: -8.24; EC50 ([3]; read-out: EC50): 5.7 nM |
| Clc1ccc(N2C[C@@H]3C[C@H]2CN3)cc1 | 22 | – | – |
| CN1C[C@@H]2C[C@H]1CN2c1ccc(Cl)nc1 | 1.3 | – | – |
| c1cncc(N2CC3CNC(C3)C2)c1 (stereo not drawn) | 0.047 | 72 | – |
| c1cnc2c(N3C[C@H]4C[C@@H]3CN4)csc2c1 | 280 | – | – |
| Cc1ccc(N2C[C@@H]3C[C@H]2CN3)cn1 | 1.6 | 1700 | EC50 [3, 19]: 350 nM; EC50 [3, 20]: 347 nM |
| N#Cc1cncc(N2C[C@H]3C[C@@H]2CN3)c1 | 0.027 | 980 | Log EC50 [3]: -9.1; EC50 ([3]; read-out: EC50): 0.8 nM |

Reference: ChEMBL document CHEMBL1145457, “Structure-activity studies and analgesic efficacy of N-(3-pyridinyl)-bridged bicyclic diamines, exceptionally potent agonists at nicotinic acetylcholine receptors” (J Med Chem, 2007)
